In the kinase profiling compilation of Christmann-Franck et al. (2016):

Key:
Experiment in all cases: radiometric filter-binding kinase assay, Kinase HotSpot
Settings in all cases: compound 0.5 µM; ATP 10 µM
HIPK1 (human) = HIPK1 (human) (UniProt Q86Z02)
RPS6KA6 KD1 KD2 (human) = RPS6KA6 KD1 KD2 (human) (UniProt Q9UK32)
NTRK1 (human) = NTRK1 (human) (UniProt P04629)
RPS6KA2 KD1 KD2 (human) = RPS6KA2 KD1 KD2 (human) (UniProt Q15349)
BLK (human) = BLK (human) (UniProt P51451)
ERBB4 (human) = ERBB4 (human) (UniProt Q15303)
[1] = molecular target: TYK2 JH1 catalytic (human) (UniProt P29597)
PAK2 (human) = PAK2 (human) (UniProt Q13177)
Chain of PAK2 (human) (Q13177 whole entry, looked up): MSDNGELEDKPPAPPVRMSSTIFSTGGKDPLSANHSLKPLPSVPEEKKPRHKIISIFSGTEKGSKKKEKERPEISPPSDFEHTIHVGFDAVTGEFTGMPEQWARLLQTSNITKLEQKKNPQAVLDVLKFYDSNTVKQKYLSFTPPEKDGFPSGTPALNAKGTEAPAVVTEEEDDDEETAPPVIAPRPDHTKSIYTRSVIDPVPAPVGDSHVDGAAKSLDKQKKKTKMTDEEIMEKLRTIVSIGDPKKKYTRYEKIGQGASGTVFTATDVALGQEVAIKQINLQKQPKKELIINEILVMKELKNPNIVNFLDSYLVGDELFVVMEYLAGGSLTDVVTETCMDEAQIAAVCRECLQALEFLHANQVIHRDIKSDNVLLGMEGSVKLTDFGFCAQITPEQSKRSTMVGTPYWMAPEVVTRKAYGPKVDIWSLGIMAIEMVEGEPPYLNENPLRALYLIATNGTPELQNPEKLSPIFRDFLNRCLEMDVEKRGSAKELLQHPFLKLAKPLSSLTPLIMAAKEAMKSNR

RET (human) = RET (human) (UniProt P07949)
MAP3K10 (human) = MAP3K10 (human) (UniProt Q02779)
ACVR1 (human) = ACVR1 (human) (UniProt Q04771)
TAOK3 (human) = TAOK3 (human) (UniProt Q9H2K8)
NEK1 (human) = NEK1 (human) (UniProt Q96PY6)
KIT (human) = KIT (human) (UniProt P10721)
TEK (human) = TEK (human) (UniProt Q02763)
TNK2 (human) = TNK2 (human) (UniProt Q07912)
MAPK14 (human) = MAPK14 (human) (UniProt Q16539)
Chain of MAPK14 (human) (Q16539 whole entry, looked up): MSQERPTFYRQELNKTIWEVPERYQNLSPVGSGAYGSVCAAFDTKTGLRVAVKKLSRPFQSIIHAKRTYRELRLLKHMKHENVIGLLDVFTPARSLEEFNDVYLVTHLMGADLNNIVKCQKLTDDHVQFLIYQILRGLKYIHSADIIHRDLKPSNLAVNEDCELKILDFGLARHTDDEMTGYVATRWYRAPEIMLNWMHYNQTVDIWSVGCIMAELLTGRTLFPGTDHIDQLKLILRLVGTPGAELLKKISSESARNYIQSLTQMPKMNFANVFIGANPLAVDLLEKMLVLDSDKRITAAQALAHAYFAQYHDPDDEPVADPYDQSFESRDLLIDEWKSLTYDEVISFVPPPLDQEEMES

IGF1R (human) = IGF1R (human) (UniProt P08069)
MUSK (human) = MUSK (human) (UniProt O15146)
MAPKAPK3 (human) = MAPKAPK3 (human) (UniProt Q16644)
CDK6 CCND3 (human) = CDK6 CCND3 (human) (UniProt P30281+Q00534)
GRK4 (human) = GRK4 (human) (UniProt P32298)
TSSK2 (human) = TSSK2 (human) (UniProt Q96PF2)
PLK3 (human) = PLK3 (human) (UniProt Q9H4B4)
FGFR4 (human) = FGFR4 (human) (UniProt P22455)
JAK3 JH1 JH2 (human) = JAK3 JH1 JH2 (human) (UniProt P52333)
TSSK1B (human) = TSSK1B (human) (UniProt Q9BXA7)
MYLK2 (human) = MYLK2 (human) (UniProt Q9H1R3)
PDGFRB (human) = PDGFRB (human) (UniProt P09619)
VRK1 (human) = VRK1 (human) (UniProt Q99986)
Chain of VRK1 (human) (Q99986 whole entry, looked up): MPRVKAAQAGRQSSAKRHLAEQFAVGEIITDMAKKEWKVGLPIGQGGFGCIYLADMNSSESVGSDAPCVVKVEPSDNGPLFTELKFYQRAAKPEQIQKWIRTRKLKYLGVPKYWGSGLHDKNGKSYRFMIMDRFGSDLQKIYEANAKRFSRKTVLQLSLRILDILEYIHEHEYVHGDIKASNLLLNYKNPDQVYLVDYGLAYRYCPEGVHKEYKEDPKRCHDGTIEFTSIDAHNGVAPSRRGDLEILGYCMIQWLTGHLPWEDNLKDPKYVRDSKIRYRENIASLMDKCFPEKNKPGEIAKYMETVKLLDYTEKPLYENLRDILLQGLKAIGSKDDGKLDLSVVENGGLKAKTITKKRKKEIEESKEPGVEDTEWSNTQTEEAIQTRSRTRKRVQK

CDK1 CCNB1 (human) = CDK1 CCNB1 (human) (UniProt P06493+P14635)
CHUK (human) = CHUK (human) (UniProt O15111)
Chain of CHUK (human) (O15111 whole entry, looked up): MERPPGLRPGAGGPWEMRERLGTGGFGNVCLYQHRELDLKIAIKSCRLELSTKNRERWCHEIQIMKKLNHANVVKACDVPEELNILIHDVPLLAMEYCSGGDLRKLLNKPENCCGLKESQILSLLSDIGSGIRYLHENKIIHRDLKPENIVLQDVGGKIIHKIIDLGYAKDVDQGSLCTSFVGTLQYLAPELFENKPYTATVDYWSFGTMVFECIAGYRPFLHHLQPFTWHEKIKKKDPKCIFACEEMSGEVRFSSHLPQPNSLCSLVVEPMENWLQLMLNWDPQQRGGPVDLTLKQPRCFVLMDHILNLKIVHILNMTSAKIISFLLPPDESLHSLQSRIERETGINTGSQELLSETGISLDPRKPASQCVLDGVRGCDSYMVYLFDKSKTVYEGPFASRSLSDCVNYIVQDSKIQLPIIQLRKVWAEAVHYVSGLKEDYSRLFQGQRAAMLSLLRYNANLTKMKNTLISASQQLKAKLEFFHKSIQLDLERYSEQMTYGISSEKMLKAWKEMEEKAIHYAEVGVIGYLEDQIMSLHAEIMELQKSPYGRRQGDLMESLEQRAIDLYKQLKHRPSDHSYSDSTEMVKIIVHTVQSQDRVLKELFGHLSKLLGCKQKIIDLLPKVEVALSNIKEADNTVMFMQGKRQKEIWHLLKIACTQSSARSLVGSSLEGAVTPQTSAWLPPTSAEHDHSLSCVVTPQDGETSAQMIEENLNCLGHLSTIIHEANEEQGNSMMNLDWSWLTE

FLT3 (human) = FLT3 (human) (UniProt P36888)
PRKCG (human) = PRKCG (human) (UniProt P05129)
MYLK (human) = MYLK (human) (UniProt Q15746)
Chain of MYLK (human) (Q15746 whole entry, looked up): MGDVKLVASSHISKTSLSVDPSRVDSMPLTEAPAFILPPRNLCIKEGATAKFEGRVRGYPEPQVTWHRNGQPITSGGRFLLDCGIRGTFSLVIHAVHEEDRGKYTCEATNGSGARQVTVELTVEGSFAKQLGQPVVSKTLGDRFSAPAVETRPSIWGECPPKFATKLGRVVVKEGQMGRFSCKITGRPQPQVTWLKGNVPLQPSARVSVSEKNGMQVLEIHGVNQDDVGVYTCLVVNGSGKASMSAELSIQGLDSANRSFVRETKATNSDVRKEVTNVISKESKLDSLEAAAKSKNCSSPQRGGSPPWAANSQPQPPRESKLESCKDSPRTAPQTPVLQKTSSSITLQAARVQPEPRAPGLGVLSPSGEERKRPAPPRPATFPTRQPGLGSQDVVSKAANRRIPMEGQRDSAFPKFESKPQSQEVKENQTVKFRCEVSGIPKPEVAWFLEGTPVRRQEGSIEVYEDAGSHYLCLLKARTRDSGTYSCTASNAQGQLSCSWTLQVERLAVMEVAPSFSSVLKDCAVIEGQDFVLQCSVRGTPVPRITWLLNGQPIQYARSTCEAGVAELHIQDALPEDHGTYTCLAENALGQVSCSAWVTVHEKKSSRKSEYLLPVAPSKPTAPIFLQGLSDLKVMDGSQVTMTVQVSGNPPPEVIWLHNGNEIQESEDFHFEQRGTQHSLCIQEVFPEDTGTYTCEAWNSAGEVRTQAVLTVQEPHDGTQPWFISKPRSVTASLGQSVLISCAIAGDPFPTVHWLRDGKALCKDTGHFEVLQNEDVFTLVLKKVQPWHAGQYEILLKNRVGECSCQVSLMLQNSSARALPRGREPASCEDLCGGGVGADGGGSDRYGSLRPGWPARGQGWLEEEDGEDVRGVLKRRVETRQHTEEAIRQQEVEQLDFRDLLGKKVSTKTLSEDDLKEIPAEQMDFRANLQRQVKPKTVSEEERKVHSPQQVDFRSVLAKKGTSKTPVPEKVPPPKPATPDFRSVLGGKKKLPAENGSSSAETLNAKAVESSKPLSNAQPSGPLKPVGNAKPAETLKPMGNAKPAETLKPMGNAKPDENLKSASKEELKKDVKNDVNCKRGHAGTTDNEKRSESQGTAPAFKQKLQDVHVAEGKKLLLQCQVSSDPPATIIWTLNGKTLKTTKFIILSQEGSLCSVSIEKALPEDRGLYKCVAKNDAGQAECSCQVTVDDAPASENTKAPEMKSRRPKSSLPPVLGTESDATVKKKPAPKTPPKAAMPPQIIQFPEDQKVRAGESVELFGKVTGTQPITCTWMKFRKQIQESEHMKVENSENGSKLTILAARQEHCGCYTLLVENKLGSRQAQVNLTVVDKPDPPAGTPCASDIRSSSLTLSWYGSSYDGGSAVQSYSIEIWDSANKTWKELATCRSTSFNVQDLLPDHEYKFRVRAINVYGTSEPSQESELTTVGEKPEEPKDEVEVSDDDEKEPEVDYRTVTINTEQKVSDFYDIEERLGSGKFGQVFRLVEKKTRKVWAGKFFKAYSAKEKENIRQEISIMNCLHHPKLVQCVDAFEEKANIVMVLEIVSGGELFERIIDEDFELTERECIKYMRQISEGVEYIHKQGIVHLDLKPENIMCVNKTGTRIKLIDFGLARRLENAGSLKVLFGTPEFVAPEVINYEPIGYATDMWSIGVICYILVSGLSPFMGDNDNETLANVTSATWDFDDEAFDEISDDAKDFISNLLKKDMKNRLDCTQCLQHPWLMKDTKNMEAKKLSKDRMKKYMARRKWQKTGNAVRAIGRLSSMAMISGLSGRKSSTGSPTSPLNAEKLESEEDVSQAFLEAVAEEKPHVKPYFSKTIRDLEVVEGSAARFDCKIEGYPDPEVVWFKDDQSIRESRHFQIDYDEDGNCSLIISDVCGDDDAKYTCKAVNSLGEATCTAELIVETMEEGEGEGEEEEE

HIPK4 (human) = HIPK4 (human) (UniProt Q8NE63)
MAP3K7 TAB1 (human) = MAP3K7 TAB1 (human) (UniProt O43318+Q15750)
MST1R (human) = MST1R (human) (UniProt Q04912)
CAMK1D (human) = CAMK1D (human) (UniProt Q8IU85)
PAK3 (human) = PAK3 (human) (UniProt O75914)
MAP2K2 (human) = MAP2K2 (human) (UniProt P36507)

Chain of NTRK1 (human) (P04629 whole entry, looked up): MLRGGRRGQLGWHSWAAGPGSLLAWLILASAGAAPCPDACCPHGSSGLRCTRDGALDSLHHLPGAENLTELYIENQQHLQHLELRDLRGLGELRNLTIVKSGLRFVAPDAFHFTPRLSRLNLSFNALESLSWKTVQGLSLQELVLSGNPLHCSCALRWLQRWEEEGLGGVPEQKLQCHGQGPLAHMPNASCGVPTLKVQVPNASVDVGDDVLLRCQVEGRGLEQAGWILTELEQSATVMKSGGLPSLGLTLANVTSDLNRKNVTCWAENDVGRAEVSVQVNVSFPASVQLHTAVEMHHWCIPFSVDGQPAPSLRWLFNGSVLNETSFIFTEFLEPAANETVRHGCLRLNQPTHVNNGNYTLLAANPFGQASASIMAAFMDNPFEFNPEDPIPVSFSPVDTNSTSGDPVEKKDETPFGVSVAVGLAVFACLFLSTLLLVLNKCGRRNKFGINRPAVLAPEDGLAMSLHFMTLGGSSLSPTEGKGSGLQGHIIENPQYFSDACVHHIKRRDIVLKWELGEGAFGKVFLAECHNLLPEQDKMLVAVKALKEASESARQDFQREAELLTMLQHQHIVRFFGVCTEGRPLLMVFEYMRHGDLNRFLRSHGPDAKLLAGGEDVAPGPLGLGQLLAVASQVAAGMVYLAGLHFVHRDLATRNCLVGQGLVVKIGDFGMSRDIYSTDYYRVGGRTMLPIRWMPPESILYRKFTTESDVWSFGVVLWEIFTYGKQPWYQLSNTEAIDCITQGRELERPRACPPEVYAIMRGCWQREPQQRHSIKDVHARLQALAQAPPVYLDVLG

Structure (SMILES) | residual activity (HIPK1 (human)) | residual activity (RPS6KA6 KD1 KD2 (human)) | residual activity (NTRK1 (human)) | residual activity (RPS6KA2 KD1 KD2 (human)) | residual activity [1] | residual activity (PAK2 (human)) | residual activity (MAP3K10 (human)) | residual activity (ACVR1 (human)) | residual activity (NEK1 (human)) | residual activity (MAPK14 (human)) | residual activity (MUSK (human)) | residual activity (MAPKAPK3 (human)) | residual activity (GRK4 (human)) | residual activity (TSSK2 (human)) | residual activity (PLK3 (human)) | residual activity (FGFR4 (human)) | residual activity (TSSK1B (human)) | residual activity (VRK1 (human)) | residual activity (MYLK (human)) | residual activity (HIPK4 (human)) | also measured
COc1cc(Nc2c(C#N)cnc3cc(OCCCN4CCN(C)CC4)c(OC)cc23)c(Cl)cc1Cl | 96.3% | 62% | 106% | 44.2% | 98.1% | 69.4% | 22.9% | 93.3% | 15.2% | 88.6% | 81.7% | 98.2% | 92.4% | 83.9% | 98.5% | 94.1% | 79.2% | 100% | 72% | 74.6% | residual activity (BLK (human)): 20.7%; residual activity (ERBB4 (human)): 1.53%; residual activity (RET (human)): 18.9%; residual activity (TAOK3 (human)): 71.3%; residual activity (KIT (human)): 93.6%; residual activity (TEK (human)): 82.6%; residual activity (TNK2 (human)): 3.54%; residual activity (IGF1R (human)): 91.5%; residual activity (CDK6 CCND3 (human)): 122%; residual activity (JAK3 JH1 JH2 (human)): 88.5%; residual activity (MYLK2 (human)): 32.1%; residual activity (PDGFRB (human)): 74.8%; residual activity (CDK1 CCNB1 (human)): 95.9%; residual activity (CHUK (human)): 98.1%; residual activity (FLT3 (human)): 30.3%; residual activity (PRKCG (human)): 93.6%; residual activity (MAP3K7 TAB1 (human)): 28.3%
CO[C@@H]1[C@H](N(C)C(=O)c2ccccc2)C[C@H]2O[C@]1(C)n1c3ccccc3c3c4c(c5c6ccccc6n2c5c31)C(=O)NC4 | 101% | 1.15% | 5.85% | 3.06% | 8.26% | 66.6% | 3.15% | 95.5% | 66.2% | 93.7% | 44.6% | 91.5% | 94.4% | 89.1% | 95.3% | 84.2% | 8.24% | 90.8% | 27.3% | 90.5% | residual activity (TAOK3 (human)): 38.1%; residual activity (JAK3 JH1 JH2 (human)): 0.781%; residual activity (PDGFRB (human)): 14.8%; residual activity (MST1R (human)): 101%
O=C1C(Cl)=C(N2C(=O)CCC2=O)C(=O)c2ccccc21 | 104% | 99.9% | 97% | 104% | 102% | 104% | 92.8% | 96.9% | 90% | 88.1% | 104% | 103% | 97.6% | 103% | 96.6% | 105% | 104% | 92.4% | 99.4% | 98.2% | residual activity (ERBB4 (human)): 110%; residual activity (RET (human)): 98%; residual activity (TAOK3 (human)): 95.3%; residual activity (KIT (human)): 84.7%; residual activity (TEK (human)): 96.7%; residual activity (TNK2 (human)): 91.5%; residual activity (IGF1R (human)): 107%; residual activity (CDK6 CCND3 (human)): 99.2%; residual activity (CAMK1D (human)): 102%; residual activity (JAK3 JH1 JH2 (human)): 101%; residual activity (PAK3 (human)): 104%; residual activity (MYLK2 (human)): 98.1%; residual activity (PDGFRB (human)): 103%; residual activity (MST1R (human)): 94.5%; residual activity (CDK1 CCNB1 (human)): 118%; residual activity (CHUK (human)): 101%; residual activity (FLT3 (human)): 108%; residual activity (PRKCG (human)): 97.5%; residual activity (MAP2K2 (human)): 106%; residual activity (MAP3K7 TAB1 (human)): 99.5%
Cn1c2ccccc2c2c3c(c4c5ccccc5n(CCC#N)c4c21)CNC3=O | 81.1% | 4.2% | 1.64% | 0.299% | 2.62% | 91.7% | 25.8% | 155% | 62.9% | 93.5% | 34.8% | 83.7% | 75.1% | 74.3% | 88.1% | 86.5% | 10.1% | 84% | 24.6% | 103% | residual activity (ERBB4 (human)): 100%; residual activity (RET (human)): 0.516%; residual activity (KIT (human)): 96.9%; residual activity (TEK (human)): 104%; residual activity (TNK2 (human)): 2.78%; residual activity (IGF1R (human)): 98.3%; residual activity (CDK6 CCND3 (human)): 52.1%; residual activity (CAMK1D (human)): 82.4%; residual activity (JAK3 JH1 JH2 (human)): 2.44%; residual activity (PAK3 (human)): 122%; residual activity (MYLK2 (human)): 59.6%; residual activity (PDGFRB (human)): 60.6%; residual activity (MST1R (human)): 111%; residual activity (CDK1 CCNB1 (human)): 38.7%; residual activity (CHUK (human)): 102%; residual activity (FLT3 (human)): 5.27%; residual activity (PRKCG (human)): 72.1%; residual activity (MAP2K2 (human)): 92.5%; residual activity (MAP3K7 TAB1 (human)): 25.4%
C[C@@H]1CCN(C(=O)CC#N)C[C@@H]1N(C)c1ncnc2[nH]ccc12 | 98.1% | 98.1% | 94.1% | 89.7% | 12% | 111% | 105% | 104% | 84.6% | 93.4% | 103% | 100% | 93.5% | 87.9% | 99.1% | 94.3% | 85.1% | 100% | 89.9% | 96.2% | residual activity (ERBB4 (human)): 100%; residual activity (RET (human)): 92.4%; residual activity (TAOK3 (human)): 94.9%; residual activity (KIT (human)): 98.9%; residual activity (TEK (human)): 96.6%; residual activity (TNK2 (human)): 87.1%; residual activity (IGF1R (human)): 93.1%; residual activity (CDK6 CCND3 (human)): 110%; residual activity (PAK3 (human)): 105%; residual activity (MYLK2 (human)): 99%; residual activity (MST1R (human)): 102%; residual activity (CDK1 CCNB1 (human)): 90.8%; residual activity (CHUK (human)): 95%; residual activity (FLT3 (human)): 77.9%; residual activity (PRKCG (human)): 90.6%; residual activity (MAP2K2 (human)): 117%; residual activity (MAP3K7 TAB1 (human)): 87.5%
